Values joined by “and” are separate entries in the source; they are usually repeats but may differ in a detail not shown here. Equal values may be shown once.
Key:
A875 shp75 cells = assay: Wound healing cell motility assay, A875 shp75; assay type: cell-based, human
Protocol: For wound healing assay, cells were grown until confluency and subjected to a wound across the cell mono-layer. Cells were then incubated with serum-free media either with DMSO or a small molecule (with or without 5 µM Q_VD_poH) and imaged at specific time-points. Cell migration is reflected as fold change in wound area over time.

p75^NTR TMD I252A = target: T1, p75^NTR TMD I252A (Homo sapiens, UniProt P08138, I252A); assay: AraTM assay, I252A mutant p75NTR TMD; assay type: cell-based; settings: for GFP/OD630, Mean / GFP/OD630, individual replicates: I252A
T1 construct: Comparison of wild-type (WT) p75^NTR TMD and I252A, P253G and V254A mutants in the AraTM assay; expressed in transfected cells; host or cells: E. coli AS19 (LPS-negative)
T1 sequence (P08138 250-275 I252A): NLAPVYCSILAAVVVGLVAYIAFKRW

A875 NT cells = assay: Boyden chamber chemotaxis/invasion assay, A875 NT; assay type: cell-based, human; settings: for Fold change - invading cells, Mean / Fold change - invading cells, individual replicates: 1μM
Protocol: For Boyden chamber assay, Corning® BioCoat™ Matrigel® Invasion Chambers 8.0 µm PET Membrane were used (cat. no. 354480). A875 NT or WM115 cells were serum-starved for 16 h and then seeded at 60,000 cells per well in serum-free media under different conditions, including DMSO (vehicle) or small molecules Div17E5 or Np75-4A22 at different concentrations to the top chamber of the Matrigel-coated trans-well chamber. The pan-caspase inhibitor Q_VD_poH (at 5 µM) was also introduced in the top chamber in some experiments. Two different chemoattractants, NGF (at 50 ng/ml or 100 ng/ml as indicated) or 10% FBS were added to the bottom chamber. Assays were carried out for 8 h after which filters were fixed in 4% PFA and stained with DAPI. Cells that had remained on the top of the filter were gently scrapped away with a cotton tip. The filter lower side was imaged on an inverted fluorescence microscope and counted using ImageJ software (NIH).

Cc1cccc(-c2cncc(Nc3ccc(Br)c(Cl)c3Cl)n2)c1C [Np75-4A22]
Wound area (Fold) (A875 shp75 cells; A875 shp75, 1uM, 0 h, Mean): 1.000 Fold | Wound area (Fold) (A875 shp75 cells; A875 shp75, 1uM, 0 h, n1): 0.845 Fold | Wound area (Fold) (A875 shp75 cells; A875 shp75, 1uM, 0 h, n2): 1.081 Fold | Wound area (Fold) (A875 shp75 cells; A875 shp75, 1uM, 0 h, n3): 1.074 Fold | Wound area (Fold) (A875 shp75 cells; A875 shp75, 1uM, 3 h, Mean): 0.931 Fold | Wound area (Fold) (A875 shp75 cells; A875 shp75, 1uM, 3 h, n1): 0.916 Fold | Wound area (Fold) (A875 shp75 cells; A875 shp75, 1uM, 3 h, n2): 0.940 Fold | Wound area (Fold) (A875 shp75 cells; A875 shp75, 1uM, 3 h, n3): 0.936 Fold | Wound area (Fold) (A875 shp75 cells; A875 shp75, 1uM, 6 h, Mean): 0.862 Fold | Wound area (Fold) (A875 shp75 cells; A875 shp75, 1uM, 6 h, n1): 0.849 Fold | Wound area (Fold) (A875 shp75 cells; A875 shp75, 1uM, 6 h, n2): 0.873 Fold | Wound area (Fold) (A875 shp75 cells; A875 shp75, 1uM, 6 h, n3): 0.864 Fold | Wound area (Fold) (A875 shp75 cells; A875 shp75, 1uM, 9 h, Mean): 0.807 Fold | Wound area (Fold) (A875 shp75 cells; A875 shp75, 1uM, 9 h, n1): 0.787 Fold | Wound area (Fold) (A875 shp75 cells; A875 shp75, 1uM, 9 h, n2): 0.829 Fold | Wound area (Fold) (A875 shp75 cells; A875 shp75, 1uM, 9 h, n3): 0.805 Fold | Wound area (Fold) (A875 shp75 cells; A875 shp75, 1uM, 12 h, Mean): 0.763 Fold | Wound area (Fold) (A875 shp75 cells; A875 shp75, 1uM, 12 h, n1): 0.742 Fold | Wound area (Fold) (A875 shp75 cells; A875 shp75, 1uM, 12 h, n2): 0.785 Fold | Wound area (Fold) (A875 shp75 cells; A875 shp75, 1uM, 12 h, n3): 0.763 Fold | Wound area (Fold) (A875 shp75 cells; A875 shp75, 1uM, 15 h, Mean): 0.718 Fold | Wound area (Fold) (A875 shp75 cells; A875 shp75, 1uM, 15 h, n1): 0.696 Fold | Wound area (Fold) (A875 shp75 cells; A875 shp75, 1uM, 15 h, n2): 0.752 Fold | Wound area (Fold) (A875 shp75 cells; A875 shp75, 1uM, 15 h, n3): 0.705 Fold | Wound area (Fold) (A875 shp75 cells; A875 shp75, 1uM, 18 h, Mean): 0.698 Fold | Wound area (Fold) (A875 shp75 cells; A875 shp75, 1uM, 18 h, n1): 0.664 Fold | Wound area (Fold) (A875 shp75 cells; A875 shp75, 1uM, 18 h, n2): 0.709 Fold | Wound area (Fold) (A875 shp75 cells; A875 shp75, 1uM, 18 h, n3): 0.721 Fold | Wound area (Fold) (A875 shp75 cells; A875 shp75, 1uM, 21 h, Mean): 0.669 Fold | Wound area (Fold) (A875 shp75 cells; A875 shp75, 1uM, 21 h, n1): 0.640 Fold | Wound area (Fold) (A875 shp75 cells; A875 shp75, 1uM, 21 h, n2): 0.695 Fold | Wound area (Fold) (A875 shp75 cells; A875 shp75, 1uM, 21 h, n3): 0.673 Fold | Wound area (Fold) (A875 shp75 cells; A875 shp75, 1uM, 24 h, Mean): 0.638 Fold | Wound area (Fold) (A875 shp75 cells; A875 shp75, 1uM, 24 h, n1): 0.601 Fold | Wound area (Fold) (A875 shp75 cells; A875 shp75, 1uM, 24 h, n2): 0.671 Fold | Wound area (Fold) (A875 shp75 cells; A875 shp75, 1uM, 24 h, n3): 0.643 Fold | Wound area (Fold) (A875 shp75 cells; A875 shp75, 2uM, 0 h, Mean): 1.000 Fold | Wound area (Fold) (A875 shp75 cells; A875 shp75, 2uM, 0 h, n1): 0.9754 Fold | Wound area (Fold) (A875 shp75 cells; A875 shp75, 2uM, 0 h, n2): 1.0649 Fold | Wound area (Fold) (A875 shp75 cells; A875 shp75, 2uM, 0 h, n3): 0.9597 Fold | Wound area (Fold) (A875 shp75 cells; A875 shp75, 2uM, 3 h, Mean): 0.910 Fold | Wound area (Fold) (A875 shp75 cells; A875 shp75, 2uM, 3 h, n1): 0.9076 Fold | Wound area (Fold) (A875 shp75 cells; A875 shp75, 2uM, 3 h, n2): 0.9176 Fold | Wound area (Fold) (A875 shp75 cells; A875 shp75, 2uM, 3 h, n3): 0.9063 Fold | Wound area (Fold) (A875 shp75 cells; A875 shp75, 2uM, 6 h, Mean): 0.853 Fold | Wound area (Fold) (A875 shp75 cells; A875 shp75, 2uM, 6 h, n1): 0.8581 Fold | Wound area (Fold) (A875 shp75 cells; A875 shp75, 2uM, 6 h, n2): 0.8655 Fold | Wound area (Fold) (A875 shp75 cells; A875 shp75, 2uM, 6 h, n3): 0.836 Fold | Wound area (Fold) (A875 shp75 cells; A875 shp75, 2uM, 9 h, Mean): 0.814 Fold | Wound area (Fold) (A875 shp75 cells; A875 shp75, 2uM, 9 h, n1): 0.821 Fold | Wound area (Fold) (A875 shp75 cells; A875 shp75, 2uM, 9 h, n2): 0.8359 Fold | Wound area (Fold) (A875 shp75 cells; A875 shp75, 2uM, 9 h, n3): 0.7843 Fold | Wound area (Fold) (A875 shp75 cells; A875 shp75, 2uM, 12 h, Mean): 0.777 Fold | Wound area (Fold) (A875 shp75 cells; A875 shp75, 2uM, 12 h, n1): 0.789 Fold | Wound area (Fold) (A875 shp75 cells; A875 shp75, 2uM, 12 h, n2): 0.7939 Fold | Wound area (Fold) (A875 shp75 cells; A875 shp75, 2uM, 12 h, n3): 0.7491 Fold | Wound area (Fold) (A875 shp75 cells; A875 shp75, 2uM, 15 h, Mean): 0.752 Fold | Wound area (Fold) (A875 shp75 cells; A875 shp75, 2uM, 15 h, n1): 0.7699 Fold | Wound area (Fold) (A875 shp75 cells; A875 shp75, 2uM, 15 h, n2): 0.7822 Fold | Wound area (Fold) (A875 shp75 cells; A875 shp75, 2uM, 15 h, n3): 0.7049 Fold | Wound area (Fold) (A875 shp75 cells; A875 shp75, 2uM, 18 h, Mean): 0.727 Fold | Wound area (Fold) (A875 shp75 cells; A875 shp75, 2uM, 18 h, n1): 0.7451 Fold | Wound area (Fold) (A875 shp75 cells; A875 shp75, 2uM, 18 h, n2): 0.762 Fold | Wound area (Fold) (A875 shp75 cells; A875 shp75, 2uM, 18 h, n3): 0.6733 Fold | Wound area (Fold) (A875 shp75 cells; A875 shp75, 2uM, 21 h, Mean): 0.692 Fold | Wound area (Fold) (A875 shp75 cells; A875 shp75, 2uM, 21 h, n1): 0.7162 Fold | Wound area (Fold) (A875 shp75 cells; A875 shp75, 2uM, 21 h, n2): 0.7095 Fold | Wound area (Fold) (A875 shp75 cells; A875 shp75, 2uM, 21 h, n3): 0.6489 Fold | Wound area (Fold) (A875 shp75 cells; A875 shp75, 2uM, 24 h, Mean): 0.665 Fold | Wound area (Fold) (A875 shp75 cells; A875 shp75, 2uM, 24 h, n1): 0.7012 Fold | Wound area (Fold) (A875 shp75 cells; A875 shp75, 2uM, 24 h, n2): 0.6688 Fold | Wound area (Fold) (A875 shp75 cells; A875 shp75, 2uM, 24 h, n3): 0.6256 Fold | effect of Ile252 mutation on compound activity in AraTM assay (p75^NTR TMD I252A): affected | GFP/OD630, Mean (p75^NTR TMD I252A; compound 5 μM): 0.99 | GFP/OD630, individual replicates (p75^NTR TMD I252A; compound 5 μM): 0.93 and 1.08 and 0.97 | GFP/OD630, Mean (p75^NTR TMD I252A; compound 10 μM): 0.85 | GFP/OD630, individual replicates (p75^NTR TMD I252A; compound 10 μM): 0.76 and 0.91 and 0.89 | GFP/OD630, Mean (p75^NTR TMD I252A; compound 20 μM): 0.84 | GFP/OD630, individual replicates (p75^NTR TMD I252A; compound 20 μM): 1.01 and 0.83 and 0.69 | GFP/OD630, Mean (p75^NTR TMD I252A; compound 30 μM): 0.73 | GFP/OD630, individual replicates (p75^NTR TMD I252A; compound 30 μM): 0.91 and 0.67 and 0.61 | GFP/OD630, Mean (p75^NTR TMD I252A; compound 40 μM): 0.72 | GFP/OD630, individual replicates (p75^NTR TMD I252A; compound 40 μM): 0.77 and 0.62 and 0.76 | INVADING CELLS Average (A875 NT cells; 0.5μM, NGF (50 ng/ml)): 217.00 | INVADING CELLS Fold Average (A875 NT cells; 0.5μM, NGF (50 ng/ml)): 1.60 Fold | INVADING CELLS Fold change (A875 NT cells; 0.5μM, NGF (50 ng/ml)): 1.65 Fold and 1.68 Fold and 1.46 Fold | INVADING CELLS count (A875 NT cells; 0.5μM, NGF (50 ng/ml)): 224 and 229 and 198 | INVADING CELLS Average (A875 NT cells; 0.5μM, No NGF): 115.33 | INVADING CELLS Fold Average (A875 NT cells; 0.5μM, No NGF): 0.85 Fold | INVADING CELLS Fold change (A875 NT cells; 0.5μM, No NGF): 0.82 Fold and 0.92 Fold and 0.80 Fold | INVADING CELLS count (A875 NT cells; 0.5μM, No NGF): 112 and 125 and 109 | INVADING CELLS Average (A875 NT cells; 0.75μM, NGF (50 ng/ml)): 161.00 | INVADING CELLS Fold Average (A875 NT cells; 0.75μM, NGF (50 ng/ml)): 1.18 Fold | INVADING CELLS Fold change (A875 NT cells; 0.75μM, NGF (50 ng/ml)): 1.31 Fold and 1.11 Fold and 1.13 Fold | INVADING CELLS count (A875 NT cells; 0.75μM, NGF (50 ng/ml)): 178 and 151 and 154 | INVADING CELLS Average (A875 NT cells; 0.75μM, No NGF): 131.00 | INVADING CELLS Fold Average (A875 NT cells; 0.75μM, No NGF): 0.96 Fold | INVADING CELLS Fold change (A875 NT cells; 0.75μM, No NGF): 0.99 Fold and 1.01 Fold and 0.90 Fold | INVADING CELLS count (A875 NT cells; 0.75μM, No NGF): 134 and 137 and 122 | Fold change - invading cells, Mean (A875 NT cells; NGF): 1.46 | Fold change - invading cells, individual replicates (A875 NT cells; NGF): 1.24 and 1.52 and 1.63 | Fold change - invading cells, Mean (A875 NT cells; no NGF): 0.96 | Fold change - invading cells, individual replicates (A875 NT cells; no NGF): 1.22 and 0.88 and 0.78 | NGF activity in Boyden chamber assay of cell chemotaxis (A875 NT cells; 1 μM, NGF 50 ng/ml): blocked all NGF activity | NGF-induced A875 chemotaxis (A875 NT cells; submicromolar concentrations, NGF 50 ng/ml): significantly reducing

— paper PMC12514245, “Impaired migration and lung invasion of human melanoma by a novel small molecule targeting the transmembrane domain of death receptor p75^NTR” (EMBO Molecular Medicine, 2025)
